# Assay results: article PMC12123601, “Light-Induced, Lysine-Targeting Irreversible Covalent Inhibition of the Human Oxygen Sensing Hydroxylase Factor Inhibiting HIF (FIH)” (Journal of the American Chemical Society, 2025)
# System: EGLN3 mRNA level in Hep3B cells
# Assay: qRT-PCR of FIH-dependent HIF target gene EGLN3 in Hep3B cells
# Assay type: cell-based
# Conditions: for Upregulation of EGLN3 expression: absence of irradiation
# Method: 5 […] sustainably engages with FIH and regulates the expression of FIH-dependent HIF target gene EGLN3 in Hep3B cells. (A) The CETSA assay was carried out with Hep3B cells grown in the presence of NBA-ZG-2291 (50 μM) for 12–48 h after 30 min of light activation (365 nm, 16 W). The intensity of the bands for grayscale analysis was referenced to the starting temperature (37 °C). α-Actinin was the sample loading control. n = 2; mean ± SD. […] (E) Correlation heatmap of the NBA-ZG-2291-treated group and the siFIH group by RNA-sequencing analysis. […] The relative fold change with respect to DMSO treated sample is shown (with normalization to HPRT gene levels). Mean ± SEM; n = 3. (G) TG level of NBA-ZG-2291-treated 3T3-L1-derived adipocytes. Mean ± SEM; n = 3. (H) Representative Oil Red O-stained images of the control, ZG-2291-treated, and NBA-ZG-2291-treated 3T3-L1-derived adipocytes. Scale Bar, 30 μm. P values were analyzed by two-way ANOVA comparing with the vehicle/control group (*, P < 0.05; **, P < 0.01; ***, P < 0.001, ****, P < 0.0001). See Methods (Quantitative PCR Analysis of Gene Expression) for assay details. TEXT PRINTED IN THE PICTURE: (A) no label printed: FIH: ΔTm (°C): 8.87 (Incubation time: 12 h); FIH: ΔTm (°C): 9.28 (Incubation time: 24 h); FIH: ΔTm (°C): 8.86 (Incubation time: 48 h); α-actinin: ΔTm (°C): 0.30 (Incubation time: 12 h); α-actinin: ΔTm (°C): -0.03 (Incubation time: 24 h); α-actinin: ΔTm (°C): -0.45 (Incubation time: 48 h) DOUBTS OF THE COPYIST ABOUT THIS PICTURE: Panel A: the picture prints no substance label with the ΔTm tables, so the label is left empty
# The Egl-9 family hypoxia-inducible factor 3 gene (EGLN3, PHD3) is a HIF target gene, expression of which is negatively regulated by FIH catalysis, , potentially in a context-dependent manner. We therefore investigated the effect of the light-induced covalent inhibitor NBA-ZG-2291 on EGLN3 expression levels in Hep3B cells using ZG-2291 as a positive inhibition control. […] At a concentration of 10 μM, NBA-ZG-2291 increased EGLN3 expression by ∼2.5-fold with irradiation.
# We also compared the time-dependent regulation of NBA-ZG-2291 on the HIF pathway with that of ZG-2291. […] This may result from the limited action time of the reversible inhibitor, perhaps due to its metabolism. The overall results provide strong evidence that the light-induced, lysine-targeting irreversible covalent inhibitor NBA-ZG-2291 can effectively and sustainably engage FIH, leading to the upregulation of FIH-dependent HIF target gene expression.
smiles,measurement,setting,value
O=C(O)CNC(=O)c1ncc(-c2cc(-c3ccc(CO)c([N+](=O)[O-])c3)no2)cc1O [NBA-ZG-2291],Upregulation of EGLN3,"0.3 μM, after 30 min light activation (365 nm, 16 W)",1.35 fold
same,Upregulation of EGLN3 expression,10 μM,did not result in significant upregulation
same,Increase of EGLN3 expression,"10 μM, with irradiation",~2.5 fold
same,Upregulation of EGLN3 expression,20 μM,very weak upregulation
same,"Increase of EGLN3 expression, time course","maintained from 6 to 48 h, after 30 min irradiation",2.5 fold
